Key:
OGFOD1 = biological target: T1, OGFOD1 (Homo sapiens, UniProt Q8N543); experiment: 2OG displacement from OGFOD1 by CPMG-edited 1H NMR; format: binding; conditions: 10 µM 2OG, 10 µM OGFOD1, 70 µM inhibitor
T1 sequence (Q8N543 1-542): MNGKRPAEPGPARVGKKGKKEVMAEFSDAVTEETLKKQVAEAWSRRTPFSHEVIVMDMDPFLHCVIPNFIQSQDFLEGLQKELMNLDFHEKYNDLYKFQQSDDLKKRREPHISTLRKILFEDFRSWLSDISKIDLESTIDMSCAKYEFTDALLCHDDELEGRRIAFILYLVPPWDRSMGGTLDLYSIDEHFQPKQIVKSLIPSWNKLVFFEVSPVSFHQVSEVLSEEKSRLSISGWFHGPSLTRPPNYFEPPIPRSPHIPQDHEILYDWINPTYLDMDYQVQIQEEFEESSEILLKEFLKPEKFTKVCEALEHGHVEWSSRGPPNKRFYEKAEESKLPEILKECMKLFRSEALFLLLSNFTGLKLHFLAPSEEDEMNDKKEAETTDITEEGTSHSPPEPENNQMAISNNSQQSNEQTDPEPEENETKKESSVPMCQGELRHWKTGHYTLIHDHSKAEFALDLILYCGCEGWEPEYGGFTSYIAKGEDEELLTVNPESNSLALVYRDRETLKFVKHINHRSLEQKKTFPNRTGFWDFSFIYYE
Procedure: (§1) total echo time of 40 ms, a relaxation delay of 2 s, with 256 scans. Water suppression was achieved by presaturation. Samples contained 30 µM apo-PHD2181-426 or OGFOD1, supplemented with 60 µM Zn(II), 30 µM of inhibitor, all in 50 mM Tris-d11, pH 7.5, 10 % D2O, […]
(§2) wLOGSY Binding Experiments: For water-ligand observed gradient spectroscopy (wLOGSY) analyses, typical experimental parameters were the following: mixing time, 1 s; relaxation delay, 2 s; number of transients, 512. Solvent excitation was achieved using a 16-ms 180° selective rectangular shape pulse with 1,000 points (Squa100.1000) set at the H2O frequency. […]
(§3) Competition Experiments by 2OG Displacement: 2OG displacement assays[12] were performed using CPMG-edited 1H spectra. […] The 2OG methylene resonance at 2.35 ppm was monitored. […]
(§4) HeLa cells were cultured in DMEM media supplemented with 10 % fetal bovine serum, 4 mM L-glutamine, 100 U/mL penicillin, and 100 µg/mL streptomycin. […] Cell extracts were analyzed by SDS-PAGE, electroblotted onto PVDF membranes (Millipore) and probed with anti-HIF-1α antibody (clone 54, BD Transduction Laboratories) at 1:1000 dilution for 1 h at room temperature. […] Target proteins were detected with SuperSignal Chemiluminescent […]
(§5) Figure S15. Single-concentration qualitative 2OG displacement as monitored by CPMG-edited 1H NMR spectroscopy. […]

PHD2 = biological target: T2, PHD2 (Homo sapiens, UniProt Q9GZT9); experiment: 2OG displacement from PHD2 by CPMG-edited 1H NMR; format: binding; conditions: 10 µM 2OG, 10 µM PHD2, 70 µM inhibitor
T2 construct: 181-426 or OGFOD1
Procedure: as §1, §2, §3, §4, §5

[1] = S9 liver microsome stability assay (Cyprotex); format: in vitro ADME; conditions: for microsomal CLint: S9 liver microsome assay, read-out: predicted intrinsic clearance; for clearance classification: low clearance: < 8.6 µL/min/mg protein
Procedure: supplemented with 80 µM Zn(II), 70 µM of inhibitor, all in 50 mM Tris-d11, pH 7.5, 10 % D2O, […]
Cell Culture and Immunoblotting
HeLa cells were cultured in DMEM media supplemented with 10 % fetal bovine serum, 4 mM L-glutamine, 100 U/mL penicillin, and 100 µg/mL streptomycin. Cells were treated with the indicated compounds, prepared in 1% DMSO, for 5 h. Following a PBS buffer rinse, cells were lysed in urea/SDS buffer supplemented with 1 mM dithiothreitol. Cell extracts were analyzed by SDS-PAGE, electroblotted onto PVDF membranes (Millipore) and probed with anti-HIF-1α antibody (clone 54, BD Transduction Laboratories) at 1:1000 dilution for 1 h at room temperature. The HRP-conjugated secondary antibody was then applied at room temperature for 1 h. Target proteins were detected with SuperSignal Chemiluminescent […]
ADMET in vitro Predictors
S9 liver microsome stability assays and MDCK-MDR1 efflux assays were carried out for CCT3 and CCT4 by Cyprotex (UK). Additional details are provided later in the Supporting […]
The solubility and metabolic stability of CCT3 and CCT4 was preliminarily evaluated using a S9 liver microsome assay (Cyprotex, UK). According to the assay, CCT3 and CCT4 had […]
respectively, and are thus classified as having low clearance (< 8.6 µL/min/mg protein).
The cell permeability of CCT3 and CCT4 were evaluated using an MDR1-MDCK in vitro […]
able to penetrate the blood-brain barrier. The permeability coefficients were determined to be

T2 sequence (Q9GZT9 181-426 limits assumed): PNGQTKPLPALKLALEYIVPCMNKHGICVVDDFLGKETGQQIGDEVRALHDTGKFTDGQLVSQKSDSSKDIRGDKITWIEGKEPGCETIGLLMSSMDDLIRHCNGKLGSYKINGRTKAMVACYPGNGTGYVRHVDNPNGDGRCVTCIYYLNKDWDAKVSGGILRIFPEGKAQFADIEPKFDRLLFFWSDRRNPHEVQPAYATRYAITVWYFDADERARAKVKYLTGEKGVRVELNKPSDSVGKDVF

SMILES	displacement of bound 2OG from OGFOD1, in words (OGFOD1)	displacement of bound 2OG from PHD2, in words (PHD2)	microsomal CLint [1]	clearance classification ([1]; listed as CCT3)	clearance classification ([1]; listed as CCT4)
Cn1c(O)c(C(=O)CCc2ccccc2)c(=O)n(C)c1=O [compound 26]	capable of displacing bound 2OG from the active site of OGFOD1	not from that of PHD2	4.76 µL/min/mg	only low levels of clearance	–
Cn1c(O)c(C(=O)CCc2cccs2)c(=O)n(C)c1=O [compound 42]	capable of displacing bound 2OG from the active site of OGFOD1	not from that of PHD2	7.72 µL/min/mg	–	only low levels of clearance

— article PMC6471485, “Selective Inhibitors of a Human Prolyl Hydroxylase (OGFOD1) Involved in Ribosomal Decoding” (Chemistry (Weinheim an Der Bergstrasse, Germany), 2019)
